Reference: ChEMBL document CHEMBL4346719, “Discovery of novel acylhydrazone neuraminidase inhibitors” (Eur J Med Chem, 2019)

Legend:
[1] = target: Neuraminidase (Influenza A virus, UniProt B4URF0)
[2] = Inhibition of influenza virus A/WSN/1933 (H1N1) neuraminidase using MUNANA as substrate preincubated for 10 mins followed by substrate addition and measured for 15 mins by fluorescence assay; set-up: species or system Influenza A virus ([…])

Neuraminidase, sequence (B4URF0 whole entry): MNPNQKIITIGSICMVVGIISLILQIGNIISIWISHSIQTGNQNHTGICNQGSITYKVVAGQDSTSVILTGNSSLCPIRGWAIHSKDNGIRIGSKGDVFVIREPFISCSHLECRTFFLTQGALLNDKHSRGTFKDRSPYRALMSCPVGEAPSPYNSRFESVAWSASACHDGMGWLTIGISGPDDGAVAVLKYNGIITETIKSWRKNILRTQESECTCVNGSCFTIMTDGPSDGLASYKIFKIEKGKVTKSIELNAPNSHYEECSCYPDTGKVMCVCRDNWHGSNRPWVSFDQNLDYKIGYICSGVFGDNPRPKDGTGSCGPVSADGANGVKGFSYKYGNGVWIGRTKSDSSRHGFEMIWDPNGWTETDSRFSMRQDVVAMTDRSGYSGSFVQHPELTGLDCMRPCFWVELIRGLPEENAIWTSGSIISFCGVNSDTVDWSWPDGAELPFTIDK

Which IC50 [1] does the source give for `O=C(NCCCN1CCOCC1)C(=O)N/N=C/c1ccccc1O` here?
Its IC50 is 6.48 µM.

For `CC(=O)N[C@H]1[C@H]([C@H](O)[C@H](O)CO)OC(P(=O)(O)O)=C[C@@H]1NC(=N)N`, which IC50 [2] is on record?
The IC50 was 0.0006 µM.

With `COc1cc(/C=N/NC(=O)C(=O)NCCCN2CCOCC2)ccc1O` as the molecule, how does the IC50 [1] read?
Its IC50 is 4.67 µM.

For `O=C(NCCCN1CCOCC1)C(=O)N/N=C/c1ccc(O)c([N+](=O)[O-])c1`, which IC50 [1] is on record?
The IC50 was 4.37 µM.

With `COc1ccccc1/C=N/NC(=O)C(=O)NCCCN1CCOCC1` as the molecule, how does the IC50 [1] read?
The IC50 was 7.1 µM.

With `COc1cc(/C=N/NC(=O)C(=O)NCCCN2CCOCC2)cc(OC)c1OC` as the molecule, how does the IC50 [1] read?
The IC50 was 2.61 µM.

For `COc1ccc(/C=N/NC(=O)C(=O)NCCCN2CCOCC2)cc1OC`, which IC50 [1] is on record?
Its IC50 is 2.37 µM.

For `COc1cc(/C=N/NC(=O)C(=O)NCCCN2CCOCC2)cc(OC)c1O`, which IC50 [1] is on record?
The IC50 was 3.15 µM.
